Assay results as given in PubChem BioAssay AID1259407 (Chemical Carcinogenesis Research Information System (CCRIS), 2018).
Active and inactive are the calls of the source. No rule for the calls is given here.

Test system: CCRIS mutagenicity, Ames/micronucleus/aberration tests
Assay: CCRIS mutagenicity studies
Conditions: Test System: AMES SALMONELLA TYPHIMURIUM

Measured: mutagenic call

OCCOCCO
inactive: Strain/Indicator: TA97A, Metabolic Activation: NONE inactive; negative | Strain/Indicator: TA97A, Metabolic Activation: RAT, LIVER, S-9, AROCLOR 1254 inactive; negative | Strain/Indicator: TA98, Metabolic Activation: HAMSTER, LIVER, S-9, AROCLOR 1254 (10%), Method: PREINCUBATION inactive; negative | Strain/Indicator: TA98, Metabolic Activation: NONE inactive; negative | Strain/Indicator: TA98, Metabolic Activation: NONE, Method: PREINCUBATION inactive; negative | Strain/Indicator: TA98, Metabolic Activation: RAT, LIVER, S-9, AROCLOR 1254 inactive; negative | Strain/Indicator: TA98, Metabolic Activation: RAT, LIVER, S-9, AROCLOR 1254 (10%), Method: PREINCUBATION inactive; negative | Strain/Indicator: TA100, Metabolic Activation: HAMSTER, LIVER, S-9, AROCLOR 1254 (10%), Method: PREINCUBATION inactive; negative | Strain/Indicator: TA100, Metabolic Activation: NONE inactive; negative | Strain/Indicator: TA100, Metabolic Activation: NONE, Method: PREINCUBATION inactive; negative | Strain/Indicator: TA100, Metabolic Activation: RAT, LIVER, S-9, AROCLOR 1254 inactive; negative | Strain/Indicator: TA100, Metabolic Activation: RAT, LIVER, S-9, AROCLOR 1254 (10%), Method: PREINCUBATION inactive; negative | Strain/Indicator: TA102, Metabolic Activation: NONE inactive; negative | Strain/Indicator: TA102, Metabolic Activation: RAT, LIVER, S-9, AROCLOR 1254 inactive; negative | Strain/Indicator: TA1535, Metabolic Activation: HAMSTER, LIVER, S-9, AROCLOR 1254 (10%), Method: PREINCUBATION inactive; negative | Strain/Indicator: TA1535, Metabolic Activation: NONE, Method: PREINCUBATION inactive; negative | Strain/Indicator: TA1535, Metabolic Activation: RAT, LIVER, S-9, AROCLOR 1254 (10%), Method: PREINCUBATION inactive; negative | Strain/Indicator: TA1537, Metabolic Activation: HAMSTER, LIVER, S-9, AROCLOR 1254 (10%), Method: PREINCUBATION inactive; negative | Strain/Indicator: TA1537, Metabolic Activation: NONE, Method: PREINCUBATION inactive; negative | Strain/Indicator: TA1537, Metabolic Activation: RAT, LIVER, S-9, AROCLOR 1254 (10%), Method: PREINCUBATION inactive; negative
